Source: ChEMBL document CHEMBL3872213, “Synthesis and biological activity of furoxan derivatives against Mycobacterium tuberculosis” (Eur J Med Chem, 2016)
Values after ≈ are worked out from the molar mass of the structure shown.

Legend:
[1] = system: Mycobacterium tuberculosis; assay: Antitubercular activity against clinical isolates of isoniazid/rifampicin/streptomycin/ethambutal resistant Mycobacterium tuberculosis after 7 days by REMA method; format: functional; conditions: 168 h
[2] = system: Mycobacterium tuberculosis; assay: Antitubercular activity against multi-drug resistant Mycobacterium tuberculosis; format: functional

| Compound | MIC90 [1] [µM] | MIC90 [2] [µM] |
| --- | --- | --- |
| O=C(N/N=C/c1ccc(Oc2no[n+]([O-])c2S(=O)(=O)c2ccccc2)cc1)c1ccncc1 | 7 (≈ 3.26 µg/mL) | – |
| O=C(N/N=C/c1ccc(O)cc1)c1ccncc1 | – | > 62 |
| O=C(N/N=C/c1ccc(Oc2no[n+]([O-])c2-c2ccccc2)cc1)c1ccncc1 | 24.3 (≈ 9.75 µg/mL) | – |
| O=C(N/N=C/c1ccccc1Oc1no[n+]([O-])c1S(=O)(=O)c1ccccc1)c1ccncc1 | 50 (≈ 23.3 µg/mL) | – |
| O=C(N/N=C/c1cccc(Oc2no[n+]([O-])c2S(=O)(=O)c2ccccc2)c1)c1ccncc1 | 21.3 (≈ 9.91 µg/mL) | – |
